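Compound exposure: 48 hours, 5 concentrations, 96-well plates. TGI: total growth inhibition.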
Legend:
Test in all cases: NCI tumour cell line growth inhibition, 48 h
COLO 205 colon = system: COLO 205 colon
HT29 colon = system: HT29 colon
MALME-3M melanoma = system: MALME-3M melanoma
M14 melanoma = system: M14 melanoma
SW-620 colon = system: SW-620 colon
SNB-75 CNS = system: SNB-75 CNS
OVCAR-8 ovarian = system: OVCAR-8 ovarian
K-562 leukemia = system: K-562 leukemia
NCI-H23 lung = system: NCI-H23 lung
SK-MEL-2 melanoma = system: SK-MEL-2 melanoma
EKVX NSCLC = system: EKVX NSCLC
CAKI-1 renal = system: CAKI-1 renal
UACC-62 melanoma = system: UACC-62 melanoma

Compound	TGI (COLO 205 colon) [µM]	TGI (HT29 colon) [µM]	TGI (MALME-3M melanoma) [µM]	TGI (M14 melanoma) [µM]	TGI (SW-620 colon) [µM]	TGI (SNB-75 CNS) [µM]	TGI (OVCAR-8 ovarian) [µM]	TGI (K-562 leukemia) [µM]	TGI (NCI-H23 lung) [µM]	TGI (SK-MEL-2 melanoma) [µM]	TGI (EKVX NSCLC) [µM]	TGI (CAKI-1 renal) [µM]	TGI (UACC-62 melanoma) [µM]
Cc1cccc(-c2cc(=O)c3c(C)cc(C)nc3[nH]2)c1	8.16	19.1	> 100	> 100	> 19.7	7.36	> 100	32.3	40.4	> 100	> 100	> 100	> 100
CC(OC(=O)C(CC(=O)OC(C)(C)C)NC(=O)OC(C)(C)C)C(=O)OCc1ccccc1 (stereo unspecified)	> 100	> 100	> 100	> 100	> 100	> 100	> 100	> 100	> 100	> 100	> 100	> 100	> 100
Nc1nc2c(ncn2Cc2ccccc2CO)c(=O)[nH]1	> 100	> 100	> 100	> 100	> 100	> 100	> 100	> 100	> 100	> 100	> 100	> 100	> 100
CC(=O)OC1COC(N2C(=O)C(=O)c3cc(Br)ccc32)C(OC(C)=O)C1OC(C)=O (stereo unspecified)	> 100	> 100	> 100	> 100	> 100	> 100	> 100	> 100	> 100	> 100	> 100	> 100	> 100
Cc1c2ccncc2c(C)c2c1[nH]c1ccc(OCC(F)(F)F)cc12	3.18	3.11	3.23	3.39	1.99	3.65	2.59	3.91	3.14	3.19	3.09	3.66	–
CC(=O)OC12c3ccccc3-c3ccccc3C1C1C(=O)OC(=O)C12 (stereo unspecified)	> 10	> 10	> 10	> 10	> 10	> 10	> 10	> 10	> 10	> 10	> 10	> 10	–
CCOC(=O)C(=O)/C(=C/N1C(=O)CC(=O)NC1=S)C(=O)OCC	> 100	> 100	> 100	> 100	> 100	> 100	> 100	> 100	> 100	> 100	> 100	> 100	> 100
O=C1C=CC(=O)c2c1ccc1c3ccccc3n(-c3ccccc3[N+](=O)[O-])c21	4.35	> 74.1	5.63	4.58	> 100	35.7	–	> 100	19.4	31.6	23.7	3.64	10.2

From PubChem BioAssay (NCI)
